# Test results as given in paper PMC6273820, “Antimicrobial Activity and Stability of Short and Long Based Arachnid Synthetic Peptides in the Presence of Commercial Antibiotics” (Molecules, 2016).
# Where no end group is shown, it is not given here.
# How the values were obtained:
# [1] = Stability in supernatant of S. aureus growth; type: in vitro ADME, Staphylococcus aureus; settings: 50 μg/mL, 12 h at 37 °C, extraction, reverse phase HPLC at 230 nm
# Procedure: (§1) The four synthetic peptides were subjected to incubation in human blood plasma or in the supernatant of S. aureus and P. aeruginosa growth. The AMPs were diluted in human blood plasma or in the supernatant of bacterial growth (50 μg/mL) and incubated at 37 °C for 12 h. After peptide extraction, the AMPs were separated by reverse phase HPLC using a C18 column (Vydac 218 TP54, Grace Co.) and a linear gradient of acetonitrile in 0.1% aqueous TFA from 0 to 60% in 60 min at a flow rate of 1 mL/min. Effluent absorbance was monitored at 230 nm. Peptide fractions were dried under vacuum, resuspended and analyzed by ESI-MS to confirm their molecular masses.
# [2] = tested on: Klebsiella pneumoniae ST258; assay: microbe, parasite or virus in culture; type: cell-based
# Procedure: (§2) It was determined using the broth microdilution assay in accordance with the procedures from the Clinical and Laboratory Standards Institute. For broth microdilution assays, pathogenic bacteria, such as Escherichia coli ATCC 25922, Staphylococcus aureus ATCC 25923, Pseudomonas aeruginosa ATCC 27853 and Klebsiella pneumoniae ST258, were cultured in Mueller-Hinton broth (MHB) at 37 °C until an end point between of 0.08 and 0.13 units of absorbance at 625 nm and diluted 1:100 in MHB (ca. […]). Fifty microliters of this bacterial suspension was dispensed into each well of a 96-well microtiter Costar® culture plates (Sigma Aldrich) having 50 µL of MHB containing a proper concentration of pure AMPs, antibiotics or the mixture of either of the AMPs with either of the antibiotics used. Dilutions of peptides and antibiotics were made manually with two-fold dilutions.
# (§3) That is, the antimicrobial capacity of each AMP (50, 25, 12.5 and 6.2 µg/ mL) in combination with each antibiotic agent (50, 25, 12.5, 3.2, 1.6 and 0 µg/ mL) was measured as described above. For evaluation of the effect of the mixtures, the fractional inhibitory concentration (FIC) was calculated for each antibiotic in each combination. The following formulas were used to calculate the FIC index: FIC of AMP = MIC of AMP in combination with Antibiotic/MIC of AMP alone; FIC of Antibiotic = MIC of Antibiotic in combination with AMP/MIC of Antibiotic alone, and FIC index = FIC of AMP + FIC of Antibiotic. Synergy was defined as an FIC index of <0.5. Additive was defined as an FIC index of >0.5 but of <4, and finally antagonism was defined as an FIC index of >4.
# [3] = Stability in human blood plasma; type: in vitro ADME; settings: 50 μg/mL
# Procedure: as §1
# [4] = tested on: Escherichia coli ATCC 25922; assay: microbe, parasite or virus in culture; type: cell-based; settings: broth microdilution (CLSI), Mueller-Hinton broth, 18 h at 37 °C, A625nm; peptides n = 8
# Procedure: as §2, with “dilutions. […]” for “dilutions.”
# [5] = tested on: Staphylococcus aureus ATCC 25923; assay: microbe, parasite or virus in culture; type: cell-based; settings: broth microdilution (CLSI), Mueller-Hinton broth, 18 h at 37 °C, A625nm; peptides n = 8
# Procedure: as §2
# as §3, with “E. coli, S. aureus, P. aeruginosa and K. pneumoniae were grown in the presence of each of the four AMPs, and in the presence of each of the eight commercial antibiotics, which were Levofloxacin, Trimethoprim, Sulfamethoxazole, Azithromycin, Amoxicillin, Ceftriaxone, Gentamicin and Vancomycin, and in combinations of AMPs and the antibiotics. That” for “That”
# [6] = tested on: Pseudomonas aeruginosa ATCC 27853; assay: microbe, parasite or virus in culture; type: cell-based; settings: broth microdilution (CLSI), Mueller-Hinton broth, 18 h at 37 °C, A625nm; peptides n = 8
# Procedure: as §2
# as §3, with “E. coli, S. aureus, P. aeruginosa and K. pneumoniae were grown in the presence of each of the four AMPs, and in the presence of each of the eight commercial antibiotics, which were Levofloxacin, Trimethoprim, Sulfamethoxazole, Azithromycin, Amoxicillin, Ceftriaxone, Gentamicin and Vancomycin, and in combinations of AMPs and the antibiotics. That” for “That”
# [7] = Stability in saline buffer (PBS); type: physicochemical; settings: 20 μg peptide in PBS pH 7.4, 37 °C, 7 days; height of peptide peak in reverse phase HPLC
# Procedure: The stability of the four synthetic peptides (20 μg) was measured in phosphate buffered saline (PBS) that consisted of NaCl (137 mM), KCl (2.7 mM), Na2HPO4 (10 mM) and KH2PO4 (2 mM) at 37 °C for 7 days (pH 7.4). The stability of peptides in PBS was monitored measuring the height of the peptide peak when separated using reverse phase HPLC under the separation conditions mentioned above.
# [8] = cited from earlier work
# Excerpt: Concerning AMPs, several physicochemical characteristics have been associated with the biological activity of them. Those that are relevant include hydrophobicity, the helical hydrophobic moment, as well as the size and the net charge of the peptide. However, no particular value relating to any of these characteristics was solely sufficient to correlate with the antimicrobial activity of the AMPs tested. In this case, however, the larger peptides FA1 and Pin2[G] were the AMPs that manifested optimum biological performance. Nevertheless, a fine balance in terms of physicochemical pr ...
# [9] = Stability in supernatant of P. aeruginosa growth; type: in vitro ADME, Pseudomonas aeruginosa; settings: 50 μg/mL, 12 h at 37 °C, extraction, reverse phase HPLC at 230 nm
# Procedure: as §1
sequence,measurement,setting,value
GILKTIKSIASKVANTVQKLKRKAKNAV [FA1],Stability in supernatants of S. aureus,[1],only a small amount
same,"Minimal Inhibitory Concentration, K. pneumoniae","[2]; broth microdilution (CLSI), Mueller-Hinton broth, 18 h at 37 °C, A625nm, peptides n = 8",>50 µg/mL
same,Peptide (MIC),"[2]; peptide alone against K. pneumoniae, based on Figure 2",>50 µg/mL
same,Peptide found after incubation in human blood plasma,"[3]; 12 h at 37 °C, extraction, reverse phase HPLC at 230 nm, ESI-MS",not found
same,"Recovery after interaction with human plasma, first few minutes of dilution","[3]; extracted after the first few minutes of dilution, reverse phase HPLC",none
same,"Minimal Inhibitory Concentration, E. coli",[4],12.5 µg/mL
same,"Minimal Inhibitory Concentration, S. aureus",[5],>50 µg/mL
same,"Minimal Inhibitory Concentration, P. aureginosa",[6],25 µg/mL
same,Stability in saline buffer,[7],less stable
same,hemolytic activity,[8],665 µM
same,Stability in supernatants of P. aeruginosa,[9],not found
